# Source: US20220071971A1, “MACROCYCLIC COMPOUNDS AND THEIR USE IN THE TREATMENT OF DISEASE” (NOVARTIS AG, priority 2018, published 2022)
# Biological target: T1, delF508-CFTR (Homo sapiens, UniProt P13569, DEL508-508)
# T1 construct: expressed in transfected cells
# Experiment: Measurement of delF508-CFTR-HRP surface expression in CFBE41o- cells
# Type: cell-based
# Details: for Emax: CFBE41o-, efficacy relative to reference compound 3-(6-(1-(2,2-difluorobenzo[d][1,3]dioxol-5-yl)cyclopropane-1-carboxamido)-3-methylpyridin-2-yl)benzoic acid, read-out: DelF508-CFTR-HRP Amax %; for EC50: HRP-tagged delF508-CFTR surface expression, CFBE41o- cells, 24 h with compound, 10-point curve, highest concentration 10 μM
# From the text: Measurement of deIF508-CFTR-HRP Surface Expression in CFBE41o-Cells
# This assay quantifies the cell surface expressions of the mutant CFTR channel using an extracellular HRP tag.
# A cellular assay was developed to measure surface expression of horseradish peroxidase (HRP) tagged delF508-CFTR in the human bronchial epithelial immortalized CFBE41o-cell line (Phuan, P. W., et al, (2014) Molecular Pharmacology 86:42-51). Specifically, the HRP sequence was inserted into the fourth extracellular loop of delF508-CFTR and stably expressed in CFBE41o-cells. Cells were seeded in 384 well plate at a density of 5000 cells/well and incubated at 37° C. for 12 to 24 hours in medium (Gibco MEM #11095, 10% FBS, 10 mM HEPES, […], 200 μg/mL G418, 3 μg/mL Puromycin). The delF508-CFTR-HRP expression was induced with 500 ng/mL doxycycline (Sigma D-9891, dissolved in H2O and sterile filtered) in medium and the cells were incubated at 37° C. for 48 h. Old medium was removed and fresh medium was added containing 500 ng/mL doxycycline and unknown test compound at required test concentration in DMSO, not exceeding 0.5% final DMSO concentration. The highest concentration tested was 10 μM with a 10-point concentration response curve using a 3-fold dilution. After addition of compounds, the cells were incubated for 24 h at 37° C. On the final day, cells were washed four times in PBS containing 1 mM MgCl2 and 0.1 mM CaCl2. HRP-Substrate (SuperSignal ELISA Pico, Fisher #37069) 20 μl/well was added and the luminescence signal was determined (Viewlux, Perkin Elmer). Light was emitted upon addition of exogenous HRP-Substrate only when delF508-CFTR-HRP reached the cell surface and the HRP tag was accessible to the HRP-Substrate (note: HRP-Substrate cannot cross the lipid bilayer to reach delF508-CFTR-HRP misfolded within the cell).
# The median activity for the lowest concentration of the compounds on each assay plate was calculated and this value was used to normalize the signal for each well on the respective plate. Three replicates at each concentrations for every compound were run to determine one EC50. The median value was determined and used to calculate compound activities as described below. Effective half maximal values (EC50) were calculated for each compound by performing logistic regression on measured dose-response data points using the equation: […]
# where “Y” is the observed activity, “Bottom” is the lowest observed value, “Top” is the highest observed value, and the “Hill coefficient” gives the largest absolute value of the slope. The curve fitting is carried out by a curve fitting program implemented at GNF using Matlab (Mathworks).
# The dose response curves also were used to calculate Fold Change (FC) using the equation: […]
# Compound efficacy relative to the reference compound 3-(6-(1-(2,2-difluorobenzo[d][1,3]dioxol-5-yl)cyclopropane-1-carboxamido)-3-methylpyridin-2-yl)benzoic acid was determined using the following formula: […]
# T1 sequence (P13569 with tags, fused parts or gaps DEL508-508): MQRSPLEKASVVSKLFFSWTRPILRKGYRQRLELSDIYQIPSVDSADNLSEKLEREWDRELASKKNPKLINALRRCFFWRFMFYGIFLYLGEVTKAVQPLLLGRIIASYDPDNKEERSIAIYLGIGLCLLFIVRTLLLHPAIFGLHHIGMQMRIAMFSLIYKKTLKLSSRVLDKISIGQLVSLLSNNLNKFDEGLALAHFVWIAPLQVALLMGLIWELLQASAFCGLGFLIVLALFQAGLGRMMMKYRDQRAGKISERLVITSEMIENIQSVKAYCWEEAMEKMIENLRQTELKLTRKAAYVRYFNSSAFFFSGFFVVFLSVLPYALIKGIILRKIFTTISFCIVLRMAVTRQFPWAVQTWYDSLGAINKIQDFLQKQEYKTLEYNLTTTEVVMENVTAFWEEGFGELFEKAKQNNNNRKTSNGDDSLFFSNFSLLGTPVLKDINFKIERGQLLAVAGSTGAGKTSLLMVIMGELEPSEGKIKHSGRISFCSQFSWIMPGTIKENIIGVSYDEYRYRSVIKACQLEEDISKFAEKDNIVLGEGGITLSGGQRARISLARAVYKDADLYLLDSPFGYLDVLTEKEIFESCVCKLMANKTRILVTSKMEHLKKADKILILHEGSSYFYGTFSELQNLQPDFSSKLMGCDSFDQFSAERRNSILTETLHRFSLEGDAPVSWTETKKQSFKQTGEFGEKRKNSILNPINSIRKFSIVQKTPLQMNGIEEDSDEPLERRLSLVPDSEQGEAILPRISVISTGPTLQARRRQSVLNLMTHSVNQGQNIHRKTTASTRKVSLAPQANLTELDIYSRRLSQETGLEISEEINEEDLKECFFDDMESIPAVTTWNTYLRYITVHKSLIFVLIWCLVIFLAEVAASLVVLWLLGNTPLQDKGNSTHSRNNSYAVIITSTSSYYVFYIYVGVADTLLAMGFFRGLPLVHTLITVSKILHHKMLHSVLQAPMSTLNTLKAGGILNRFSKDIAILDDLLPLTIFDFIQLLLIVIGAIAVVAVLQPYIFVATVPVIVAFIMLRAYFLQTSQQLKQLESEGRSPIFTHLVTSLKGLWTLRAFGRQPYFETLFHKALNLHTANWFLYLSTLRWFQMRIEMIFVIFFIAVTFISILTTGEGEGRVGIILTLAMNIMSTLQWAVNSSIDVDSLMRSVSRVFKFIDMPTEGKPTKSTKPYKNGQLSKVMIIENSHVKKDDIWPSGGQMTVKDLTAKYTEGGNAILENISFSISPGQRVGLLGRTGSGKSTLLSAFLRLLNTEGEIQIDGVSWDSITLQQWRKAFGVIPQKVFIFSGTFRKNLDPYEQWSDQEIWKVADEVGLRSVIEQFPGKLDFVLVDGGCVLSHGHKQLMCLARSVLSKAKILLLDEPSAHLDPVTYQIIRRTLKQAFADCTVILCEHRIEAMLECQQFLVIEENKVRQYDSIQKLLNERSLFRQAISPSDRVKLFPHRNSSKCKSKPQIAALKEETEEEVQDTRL
Emax [%],EC50 [nM],Structure (SMILES)
592,690,"O=S1(=O)Nc2ccc(C(F)(F)F)c(n2)-c2cc(F)ccc2OCCCCN(CCCCO)c2cccc1n2 [Compound 23, 1^5-fluoro-6-(4-hydroxybutyl)-2^3-(trifluoromethyl)-11-oxa-4-thia-3,6-diaza-2,5(2,6)-dipyridina-1(1,2)-benzenacycloundecaphane 4,4-dioxide]"
448,165,"O=S1(=O)Nc2ccc(Cl)c(n2)-c2ccccc2CCCCCN(CCCO)c2cccc1n2 [Compound 24, 2^3-chloro-6-(3-hydroxypropyl)-4-thia-3,6-diaza-2,5(2,6)-dipyridina-1(1,2)-benzenacycloundecaphane 4,4-dioxide]"
932,267,"O=S1(=O)Nc2ccc(C(F)(F)F)c(n2)-c2ccccc2CCCCCN(CCCCO)c2cccc1n2 [Compound 25, 6-(4-hydroxybutyl)-2^3-(trifluoromethyl)-4-thia-3,6-diaza-2,5(2,6)-dipyridina-1(1,2)-benzenacycloundecaphane 4,4-dioxide]"
–,668,"O=S1(=O)Nc2ccc(C(F)(F)F)c(n2)-c2cc(F)ccc2CCCCCN(CCCO)c2cccc1n2 [Compound 26, 1^5-fluoro-6-(3-hydroxypropyl)-2^3-(trifluoromethyl)-4-thia-3,6-diaza-2,5(2,6)-dipyridina-1(1,2)-benzenacycloundecaphane 4,4-dioxide]"
517,146,"O=S1(=O)Nc2ccc(C(F)(F)F)c(n2)-c2ccccc2CCCCCN(CCCO)c2cccc1n2 [Compound 29, 6-(3-hydroxypropyl)-2^3-(trifluoromethyl)-4-thia-3,6-diaza-2,5(2,6)-dipyridina-1(1,2)-benzenacycloundecaphane 4,4-dioxide]"
580,614,"O=S1(=O)Nc2ccc(C(F)(F)F)c(n2)-c2cc(F)ccc2CCCCCNc2cccc1n2 [Compound 31, 1^5-fluoro-2^3-(trifluoromethyl)-4-thia-3,6-diaza-2,5(2,6)-dipyridina-1(1,2)-benzenacycloundecaphane 4,4-dioxide]"
–,295,"CCOC(=O)C(C)(C)CN1CCCCCCc2ccccc2-c2nc(ccc2C(F)(F)F)NS(=O)(=O)c2cccc1n2 [Compound 32, ethyl 3-(4,4-dioxido-2^3-(trifluoromethyl)-4-thia-3,6-diaza-2,5(2,6)-dipyridina-1(1,2)-benzenacyclododecaphane-6-yl)-2,2-dimethylpropanoate]"
119,3300,"O=S1(=O)Nc2ccc(C(F)(F)F)c(n2)-c2ccccc2CCC(O)CNc2cccc1n2 (stereo not shown) [Compound 33, 8-hydroxy-2^3-(trifluoromethyl)-4-thia-3,6-diaza-2,5(2,6)-dipyridina-1(1,2)-benzenacyclodecaphane 4,4-dioxide]"
448,281,"CC1(C)O[C@@H](CO)[C@H](CN2CCCCCc3ccccc3-c3nc(ccc3C(F)(F)F)NS(=O)(=O)c3cccc2n3)O1 [Compound 34, 6-(((4S,5S)-5-(hydroxymethyl)-2,2-dimethyl-1,3-dioxolan-4-yl)methyl)-2^3-(trifluoromethyl)-4-thia-3,6-diaza-2,5(2,6)-dipyridina-1(1,2)-benzenacycloundecaphane 4,4-dioxide]"
715,331,"CN1CCCCCCc2ccccc2-c2nc(ccc2C(F)(F)F)NS(=O)(=O)c2cccc1n2 [Compound 35, 6-methyl-2^3-(trifluoromethyl)-4-thia-3,6-diaza-2,5(2,6)-dipyridina-1(1,2)-benzenacyclododecaphane 4,4-dioxide]"
583,253,"O=S1(=O)Nc2ccc(C(F)(F)F)c(n2)-c2ccccc2CCCCCCNc2cccc1n2 [Compound 36, 2^3-(trifluoromethyl)-4-thia-3,6-diaza-2,5(2,6)-dipyridina-1(1,2)-benzenacyclododecaphane 4,4-dioxide]"
651,385,"CC1(C)OCC(CN2CCCCCc3ccccc3-c3nc(ccc3C(F)(F)F)NS(=O)(=O)c3cccc2n3)O1 (stereo not shown) [Compound 37, 6-((2,2-dimethyl-1,3-dioxolan-4-yl)methyl)-2^3-(trifluoromethyl)-4-thia-3,6-diaza-2,5(2,6)-dipyridina-1(1,2)-benzenacycloundecaphane 4,4-dioxide]"
–,233,"O=S1(=O)Nc2ccc(C(F)(F)F)c(n2)-c2ccccc2CCCCCCCN(CCCO)c2cccc1n2 [Compound 39, 6-(3-hydroxypropyl)-2^3-(trifluoromethyl)-4-thia-3,6-diaza-2,5(2,6)-dipyridina-1(1,2)-benzenacyclotridecaphane 4,4-dioxide]"
–,220,"O=S1(=O)Nc2ccc(C(F)(F)F)c(n2)-c2ccccc2CCCCCCCN(CCCCO)c2cccc1n2 [Compound 40, 6-(4-hydroxybutyl)-2^3-(trifluoromethyl)-4-thia-3,6-diaza-2,5(2,6)-dipyridina-1(1,2)-benzenacyclotridecaphane 4,4-dioxide]"
–,187,"O=S1(=O)Nc2ccc(C(F)(F)F)c(n2)-c2ccccc2CCCCCCCN(CCCCCO)c2cccc1n2 [Compound 41, 6-(5-hydroxypentyl)-2^3-(trifluoromethyl)-4-thia-3,6-diaza-2,5(2,6)-dipyridina-1(1,2)-benzenacyclotridecaphane 4,4-dioxide]"
–,219,"O=S1(=O)Nc2ccc(C(F)(F)F)c(n2)-c2ccccc2CCCCCCCCCN(CCCCO)c2cccc1n2 [Compound 42, 6-(4-hydroxybutyl)-2^3-(trifluoromethyl)-4-thia-3,6-diaza-2,5(2,6)-dipyridina-1(1,2)-benzenacyclopentadecaphane 4,4-dioxide]"
–,255,"O=S1(=O)Nc2ccc(C(F)(F)F)c(n2)-c2ccccc2CCCCCCCCN(CCCO)c2cccc1n2 [Compound 43, 6-(3-hydroxypropyl)-2^3-(trifluoromethyl)-4-thia-3,6-diaza-2,5(2,6)-dipyridina-1(1,2)-benzenacyclotetradecaphane 4,4-dioxide]"
–,159,"O=S1(=O)Nc2ccc(C(F)(F)F)c(n2)-c2ccccc2CCCCCCCCN(CCCCO)c2cccc1n2 [Compound 44, 6-(4-hydroxybutyl)-2^3-(trifluoromethyl)-4-thia-3,6-diaza-2,5(2,6)-dipyridina-1(1,2)-benzenacyclotetradecaphane 4,4-dioxide]"
–,361,"O=S1(=O)Nc2ccc(C(F)(F)F)c(n2)-c2ccccc2CCCCCCCCCN(CCCO)c2cccc1n2 [Compound 45, 6-(3-hydroxypropyl)-2^3-(trifluoromethyl)-4-thia-3,6-diaza-2,5(2,6)-dipyridina-1(1,2)-benzenacyclopentadecaphane 4,4-dioxide]"
–,368,"COC(=O)CN1CCCCCCc2ccccc2-c2nc(ccc2C(F)(F)F)NS(=O)(=O)c2cccc1n2 [Compound 61, methyl 2-(4,4-dioxido-2^3-(trifluoromethyl)-4-thia-3,6-diaza-2,5(2,6)-dipyridina-1(1,2)-benzenacyclododecaphane-6-yl)acetate]"
–,403,"O=C(O)CCN1CCCCCCCc2ccccc2-c2nc(ccc2C(F)(F)F)NS(=O)(=O)c2cccc1n2 [Compound 62, 3-(4,4-dioxido-2^3-(trifluoromethyl)-4-thia-3,6-diaza-2,5(2,6)-dipyridina-1(1,2)-benzenacyclotridecaphane-6-yl)propanoic acid]"
